Test results as given in patent US9426996B2, “Use of benzoxaboroles as volatile antimicrobial agents on meats, plants, or plant parts” (AgroFresh Inc., priority 2013, dated 2016).

Columns and labels:
Botrytis cinerea [1] = test: in vivo dose by time volatile bioassay using strawberry; details: 0.125 mg, 3-day treatment at 21° C. plus 2 days at 21° C., vs acetone only control
Botrytis cinerea [2] = test: in vivo volatile bioassay using inoculated white carnations
Procedure: In order to assess the in vivo activity of volatile antimicrobial Compound A on controlling Botrytis cinerea on ornamental flowers, a volatile bioassay is developed using white carnations.
Five carnations are placed in an 800 mL jar containing 200 mL of a common commercial flower preservative. Five jars are then placed in a 117 L Rubbermaid storage box (Cat #2244). The petals are uniformly spray-inoculated with 5 mL of 1×10^5 spores/mL of Botrytis cinerea suspension. The tub is closed tightly. For treatment application, Compound A is dissolved in an aqueous 1,2-propylene glycol solution (3:1) and 5 mL of the solution is volatilized into the container using an ES-100-H SmartFog system (Reno, Nev.) through a ½″ side port that is sealed immediately after the application. The flowers are incubated for 3 days at 21° C. After storage, the flowers are evaluated for incidence based on presence of disease on flower petals relative to untreated control flowers for up to 8 days at 21° C., with results summarized in Table 12.

[3] = test system: Pectobacterium carotovorum; test: in vivo volatile assay on potato, onion and carrot cubes; details: 50 mg/L; for Log CFU/mL: 10 C for four days
Procedure: To test the effect of Compound A at controlling bacterial pathogens of vegetables, potato, onion and carrot are chopped into small cubes and surface sterilized with 0.825% NaOCl and allowed to dry. Four small cubes (approximately […]) of each vegetable are placed in a sterile Petri plate. Each cube is inoculated with 25 μL of Pectobacterium carotovorum (bacterial concentration of OD 1.0, 600 nm). […] No. 1001-042) attached to the inner side of the lid. The acetone is permitted to evaporate for five minutes before closing the plate and sealing it with parafilm. The vegetables are incubated at 10 C for four days.

Penicillium digitatum = test: in vitro contact fungicide assay (amended PDA); type: cell-based; details: three days at 23° C.
Procedure: (§1) In order to assess the activity of Compound A as a contact fungicide, an in vitro assay is developed. A 6 cm-diameter Petri plate is used. Compound A is amended into full-strength Potato Dextrose Agar (PDA) to achieve a final solution concentration of 10, 2, 0.4, or 0.08 mg/L, and 15-mL volume of solution is added to each plate. After cooling, 1 μL of 1×10^5 per mL Penicillium expansum or Penicillium digitatum spore suspension is spot-pipetted into the center of the agar.
(§2) Plates are sealed with a parafilm and placed in an incubator held at 23° C. After three days of storage, the cultures are evaluated for percent growth relative to control based on measurement of fungal colony diameter.

Penicillium expansum = test: in vitro contact fungicide assay (amended PDA); type: cell-based; details: three days at 23° C.
Procedure: as §1, §2

Botrytis cinerea [4] = test: in vivo volatile assay on onion leaves; details: 10 mg/L, 21° C. for 3 days
Procedure: (§3) To test the effect of Compound A (FIG. 1) on vegetables, potato, onion and squash were obtained from a local store, and the surface sterilized with 0.825% sodium hypochlorite (NaOCl). A slice of potato or two leaves of onion were placed in a sterile Petri plate, while whole squash were placed in a sterile 10.8-cup SnapWare airtight container (Model #109842). Each slice of potato was inoculated with 20 μL of a 1×10^5 spores/mL Fusarium sambucinum suspension, while onions were inoculated with 20 μL of a 1×10^6 spores/mL Botrytis cinerea suspension. For inoculation of squash, a small core was removed, and a mycelial plug of Phytophthora capsici was inserted and capped with the core. Compound A was diluted in acetone, and added to a 42.5 mm Whatman #1 filter disk (Cat. No. 1001-042) attached to the inner side of the lid at a rate to achieve a final headspace concentration of 10 mg/L. The acetone was permitted to evaporate for 5 minutes before parafilm sealing the plates or closing the airtight containers. The vegetables were incubated at 21° C. for 3 days, and evaluated for mycelial growth, dry rot, and water-soaked appearance (mm diameter) with results summarized in Table 13.

Botrytis cinerea [5] = test: in vivo volatile bioassay using green table grape
Procedure: In order to assess the in vivo activity of volatile antimicrobial compounds, a volatile bioassay is developed using green table grape. Fruit are placed individually inside a 20 mL scintillation vial, with the stem wound facing upwards. The fresh stem wound is inoculated with 10 μL of 1×10^6 per mL Botrytis cinerea spore suspension. Whatman filter paper (Cat. No. 1822-024) is placed inside duplicate vial caps. […] The acetone is permitted to evaporate for 5 minutes. The vials are then capped with the lids containing the fungicide, and placed for 14 days at 4° C. After storage, fruit are evaluated for incidence of disease and appearance of phytotoxicity.

Phytophthora capsici = test: in vivo volatile assay on squash; details: 10 mg/L, 21° C. for 3 days
Procedure: as §3

OB1OCc2cc(F)ccc21 [Compound A]
in vivo inhibition of Botrytis cinerea (Botrytis cinerea [1]): 100% | Disease incidence (%) on Petals (Botrytis cinerea [2]; 0.04 mg/L, Day 0): 0% | Disease incidence (%) on Petals (Botrytis cinerea [2]; 0.04 mg/L, Day 1): 0% | Disease incidence (%) on Petals (Botrytis cinerea [2]; 0.04 mg/L, Day 2): 16% | Disease incidence (%) on Petals (Botrytis cinerea [2]; 0.04 mg/L, Day 3): 40% | Disease incidence (%) on Petals (Botrytis cinerea [2]; 0.04 mg/L, Day 8): 92% | Disease incidence (%) on Petals (Botrytis cinerea [2]; 0.2 mg/L, Day 0): 0% | Disease incidence (%) on Petals (Botrytis cinerea [2]; 0.2 mg/L, Day 1): 8% | Disease incidence (%) on Petals (Botrytis cinerea [2]; 0.2 mg/L, Day 2): 20% | Disease incidence (%) on Petals (Botrytis cinerea [2]; 0.2 mg/L, Day 3): 16% | Disease incidence (%) on Petals (Botrytis cinerea [2]; 0.2 mg/L, Day 8): 36% | Disease incidence (%) on Petals (Botrytis cinerea [2]; 1 mg/L, Day 0): 0% | Disease incidence (%) on Petals (Botrytis cinerea [2]; 1 mg/L, Day 1): 0% | Disease incidence (%) on Petals (Botrytis cinerea [2]; 1 mg/L, Day 2): 0% | Disease incidence (%) on Petals (Botrytis cinerea [2]; 1 mg/L, Day 3): 4% | Disease incidence (%) on Petals (Botrytis cinerea [2]; 1 mg/L, Day 8): 16% | Log reduction ([3]; Carrot): 0.29 log | Log CFU/mL ([3]; Carrot): 6.06 Log CFU/mL | Log reduction ([3]; Onion): 2.14 log | Log CFU/mL ([3]; Onion): 5.99 Log CFU/mL | Log reduction ([3]; Potato): 0.84 log | Log CFU/mL ([3]; Potato): 6.63 Log CFU/mL | Incidence (%) P. digitatum (Penicillium digitatum; 0.08 mg/L): 42.0% | Incidence (%) P. digitatum (Penicillium digitatum; 0.4 mg/L): 12.5% | Incidence (%) P. digitatum (Penicillium digitatum; 2 mg/L): 0.0% | Incidence (%) P. digitatum (Penicillium digitatum; 10 mg/L): 0.0% | Incidence (%) P. expansum (Penicillium expansum; 0.08 mg/L): 93.1% | Incidence (%) P. expansum (Penicillium expansum; 0.4 mg/L): 33.0% | Incidence (%) P. expansum (Penicillium expansum; 2 mg/L): 0.0% | Incidence (%) P. expansum (Penicillium expansum; 10 mg/L): 0.0% | Water soaked (Botrytis cinerea [4]): 0 mm | Botrytis inhibition % (in vivo) (Botrytis cinerea [5]; 0.005 mg per disk, 14 days at 4° C.): 0% | Botrytis inhibition % (in vivo) (Botrytis cinerea [5]; 0.01 mg per disk, 14 days at 4° C.): 0% | Botrytis inhibition % (in vivo) (Botrytis cinerea [5]; 0.023 mg per disk, 14 days at 4° C.): 0% | Botrytis inhibition % (in vivo) (Botrytis cinerea [5]; 0.04 mg per disk, 14 days at 4° C.): 100% | Botrytis inhibition % (in vivo) (Botrytis cinerea [5]; 0.08 mg per disk, 14 days at 4° C.): 100% | Botrytis inhibition % (in vivo) (Botrytis cinerea [5]; 0.16 mg per disk, 14 days at 4° C.): 100% | Botrytis inhibition % (in vivo) (Botrytis cinerea [5]; 0.31 mg per disk, 14 days at 4° C.): 100% | Botrytis inhibition % (in vivo) (Botrytis cinerea [5]; 0.63 mg per disk, 14 days at 4° C.): 100% | Botrytis inhibition % (in vivo) (Botrytis cinerea [5]; 1.25 mg per disk, 14 days at 4° C.): 100% | lowest rate with 100% control of Botrytis cinerea (Botrytis cinerea [5]; 14 days at 4° C.): 0.04 mg/disk | appearance of phytotoxicity (Botrytis cinerea [5]; any of the rates evaluated (2.5 to 0.0024 mg/disk)): no evidence of phytotoxicity | Mycelial growth (Phytophthora capsici): 1.1 mm | Water soaked (Phytophthora capsici): 5.3 mm
